Several values for one entry are separate records, joined by “and”; a condition that tells them apart may be missing. Equal values may be shown once. Read-outs that look alike come from different tables or passages of the source.
How the values were obtained:
[1] = tested on: purified wild type (WT) luciferase (Photinus pyralis (luciferase) [Ppy Luc]); assay: Purified protein luminescence assays (Michaelis-Menten kinetics, relative emission intensity); type: biochemical; conditions: for Vmax / Km: Michaelis-Menten fit; for Km: apparent Km, WT luciferase, read-out: Km (App.); for luminescence output when treated with luciferase: 0.1 μM solution, luciferase in enzyme buffer, 10 nM
Description: FIG. 10 is a relative luminescence emission intensity of the core luciferins (6-hydroxy, 6-amino, 6-thiol) at 0.1 μM substrate concentration and at a final luciferase concentration of 10 nM.
FIG. 11 illustrates luminescence output of 0.1 μM of protected D-thioluciferin sulfide, D-thioluciferin homodisulfide, and free D-thioluciferin at a final luciferase concentration of 10 nM (control readings were recorded for substrates in the absence of the luc enzyme). The RLU were determined in triplicate and are represented as the mean±SEM.
FIG. 13 is a Michaelis-Menten graph for D-Thioluciferin. […] The assays were performed in triplicate and are represented as the mean and each curve was fit to the Michaelis-Menten equation by nonlinear regression (GraphPad 5.0) to determine apparent Km and Vmax.
Luminescence assays were initiated by adding 30 μL of purified luciferase in enzyme buffer (20 mM Tris [pH 7.4], 0.1 mM EDTA, 1 mM TCEP, and 0.8 mg/mL BSA) to 30 μL 2× substrate in substrate buffer (20 mM Tris [pH 7.4], 0.1 mM EDTA, 8 mM MgSO4, and 4 mM ATP) in a black 96-well plate. Imaging was performed one minute after enzyme addition using a Xenogen® IVIS-100® at a final enzyme concentration of 10 nM and final substrate concentrations ranging from 0.122 to 250 μM. Data acquisition and analysis was performed with Living Image® software. Data are reported as total flux (p/s) for each ROI corresponding to each well of the 96-well plate.

WT luciferase (Ppy Luc) = assay: Burst kinetics assays / rates of reduction in luminescence; type: biochemical, Photinus pyralis
Description: FIG. 9 is a burst kinetics profile of purified 10 nM luciferase treated with 100 μM D-thioluciferin.
[…] […] Data acquisition was performed with SIS for 2020n v1.9.0 software. Data are reported as Relative Light Units (RLU). To correct for the wavelength sensitivity of the PMT in the 20/20n, total flux was also measured using the IVIS-100 as described above with a final enzyme concentration of 10 nM and a final substrate concentration of 250 μM. […] The correction factor of each enzyme/substrate pair was calculated by dividing the normalized IVIS data by the normalised 20/20n data. All 20/20n data were then multiplied by their respective correction factors.

[2] = tested on: purified firefly luciferase (luc) expressed from E. coli; assay: Bioluminescence emission scans; type: biochemical, Photinus pyralis; conditions: for bioluminescence emission wavelength: FIG. 7, 10 nM luciferase with 100 μM substrate; for λmax: bioluminescence emission with luciferase
Description: FIG. 7 is a bioluminescence emission spectrum for 10 nM luciferase with 100 μM D-thioluciferin.
Purified luciferase in enzyme buffer was rapidly injected into a cuvette containing substrate in substrate buffer to a final enzyme concentration of 100 nM and a final substrate concentration of 10 μM. The emission from 400 to 800 nm was recorded in a fluorimeter with closed excitation slits 10 s after injection.

[3] = literature value; cited from earlier work
[4] = tested on: purified wild type (WT) luciferase (Photinus pyralis (luciferase) [Ppy Luc]); conditions: cited from earlier work
[5] = tested on: purified firefly luciferase (luc) expressed from E. coli; conditions: cited from earlier work; for λmax (lit.): literature value
[6] = Fluorescence spectrophotometry (excitation emission spectra); type: physicochemical; conditions: for fluorescence emission intensity: excitation at 390 nm, FIG. 15
Description: The free D-thioluciferin has a greater intensity relative to the sulfide which is promising for further sensor development.
Excitation and emission spectra were recorded on a Varian Cary Eclipse fluorometer equipped with a regulated temperature cell holder and Hellma, Suprasil® quartz fluorescence cuvettes of 10 mm pathlength and 1.5 mL volume capacity. Emission spectra were recorded at an excitation wavelength corresponding to previously recorded absorption maxima. Samples were prepared as a 0.1 mM DMSO solution, unless otherwise stated, and were scanned from 200 nm to 800 nm (Ex. Slit/Em. Slit 5 nm) at a scan rate of 600.00 nm/mn. Data were analysed using Scan Software Version 1.1.

[7] = tested on: purified firefly luciferase (10 nM) expressed from E. coli; assay: Inhibition of firefly luciferase by D-thioluciferin sulfide (thioacrylate); type: biochemical, Photinus pyralis; conditions: D-thioluciferin 10 μM, increasing sulfide
Description: FIG. 14 is a bar graph showing potential inhibitory effects of firefly luciferase by D-thioluciferin sulfide (thioacrylate). D-thioluciferin (10 μM) was treated with purified firefly luciferase (10 nM) expressed from E. coli and the luminescence recorded in the absence and presence of the sulifide.

[8] = FIG. 10, 0.1 μM substrate, 10 nM luciferase
[9] = measured for 15 seconds post-specified time

SMILES	emission signal, fold less intense compared to D-luciferin [1, 8] [fold]	Vmax ([1]; 10 nM luciferase)	Km [1]	time post-addition of rapid decrease in luminescent activity (WT luciferase (Ppy Luc)) [min]	Rate 5 min post-addition (rate of reduction in luminescence) (WT luciferase (Ppy Luc); [9]) [RLU/s]	Rate 20 minutes post addition (rate of reduction in luminescence) (WT luciferase (Ppy Luc); [9]) [RLU/s]	bioluminescence emission wavelength [2]	λmax [2] [nm]	Fluorescence (lit.) [3] [nm]	λmax (lit.) [5] [nm]	luminescence output when treated with luciferase [1]	ability to produce bioluminescence (luciferase substrate) ([1]; FIG. 11)	fluorescence emission intensity [6]	other results
Nc1ccc2nc(C3=N[C@@H](C(=O)O)CS3)sc2c1 [D-aminoluciferin, (S)-2-(6-aminobenzo[d]thiazol-2-yl)-4,5-dihydrothiazole-4-carboxylic acid]	100	13 ± 2.2 RLU/s	0.39 ± 0.08 µM	1	1.216 ± 0.1305	0.1510 ± 0.007506	593 nm	597	517	594				Vmax (lit.) ([4]; literature value): 169 ± 2.6 photons/min; Km ([4]; literature value, read-out: Km (lit)): 0.62 ± 0.05 µM; Km ([4]; previously calculated, comparison, read-out: Km previously calculated): 0.39 to 0.69 µM
O=C(O)[C@H]1CSC(c2nc3ccc(O)cc3s2)=N1 [D-luciferin, (S)-2-(6-hydroxybenzo[d]thiazol-2-yl)-4,5-dihydrothiazole-4-carboxylate]		57 ± 13 RLU/s	8.3 µM and 8 µM	10	9.300 ± 0.9815	0.3400 ± 0.05773	547 nm	553	528	551				relative luminescence emission intensity, fold greater than both D-aminoluciferin and D-thioluciferin [1, 8]: 100 fold; bioluminescence emission wavelength ([2]; listed as D-Luciferin): 557 nm; relative emission λmax ([5]; background statement): 594 nm
O=C(O)C1CSC(c2nc3ccc(SSc4ccc5nc(C6=NC(C(=O)O)CS6)sc5c4)cc3s2)=N1 [D-thioluciferin disulfide]											much higher luminescence output than its corresponding control	neither of which appeared to be bioluminescent substrates		
O=C(/C=C/Sc1ccc2nc(C3=N[C@@H](C(=O)O)CS3)sc2c1)OCc1ccccc1 [D-thioluciferin thioacrylate, (S,E)-2-(6-((3-(benzyloxy)-3-oxoprop-1-en-1-yl)thio)benzo[d]thiazol-2-yl)-4,5-dihydrothiazole-4-carboxylic acid]											negligible	neither of which appeared to be bioluminescent substrates	only weakly fluorescent	inhibition of luciferase ([7]; FIG. 14): strongly inhibitory; inhibition of luciferase ([7]; FIG. 14, listed as D-thioluciferin sulfide (thioacrylate)): decrease in emission intensity with increasing concentration of the sulfide
O=C(O)[C@H]1CSC(c2nc3ccc(S)cc3s2)=N1 [D-thioluciferin, (S)-2-(6-mercaptobenzo[d]thiazol-2-yl)-4,5-dihydrothiazole-4-carboxylic acid]	100	0.7597 ± 0.1071 RLU/s and 0.6661 ± 0.1522 RLU/s	0.117 µM and 0.1 µM		0.0067	0.0022	599 nm and 600 nm	599					strong fluorescence emission	emission, fold greater over the background [1]: > 100 fold; luminescence output, fold greater than protected thioacrylate (sulfide) ([1]; FIG. 11, 0.1 μM, 10 nM luciferase): 90 fold; Km ([1]; listed as D-Thioluciferin): 0.098 ± 0.0147 µM; period over which light of constant intensity is sustained (WT luciferase (Ppy Luc)): 20 min; burst kinetics profile (WT luciferase (Ppy Luc); FIG. 9, 10 nM luciferase, 100 μM substrate): robust initial burst of light followed by sustained light output of much lower intensity; Rate 1 min post-peak emission (rate of reduction in luminescence) (WT luciferase (Ppy Luc); [9]): 4.929 ± 0.1584 RLU/s; Fluorescence ([6]; fluorescence emission): 500 nm

Source: patent US11149034B2, “Derivatives of luciferin and methods for their synthesis” (UNIVERSITY OF CAPE TOWN, priority 2017, dated 2021)
